Data taken from patent publication US20210238197A1, “NOVEL OXOQUINOLIZINE COMPOUNDS FOR THE TREATMENT AND PROPHYLAXIS OF BACTERIAL INFECTION” (Hoffmann-La Roche Inc., priority 2018, published 2021).
≈ marks a conversion by molar mass, not a printed value. Read-outs that look alike come from different tables or passages of the source.

How the values were obtained:
[1] = Cytotoxicity assay (HepG2, CellTiter-Blue); assay type: cell-based; details: human; HepG2 cells, 3 days treatment; >100 = detection limit
Method: The cytotoxicity of compounds of present invention was assessed by HepG2 assay. HepG2 cells (ATCC RB-8065™) were seeded into 96-well plates (1.2×10^4 cells per well) and treated with compounds for 3 days, cell viability was measured at day 3 post compound treatment using the CellTiter-Blue® Cell Viability Assay (Promega, Cat. No. G8082). […], of Cell titer blue buffer were added to each well of the cells, which were incubated for 3 hours at 37° C., and the fluorescence value was measured by a plate reader (Molecular Device SpectraMax M2). The CC50 value of each compound is plotted with GraphPad Prism using four parameter logistic equation.

[2] = test system: multiple species and strains; assay: microbe, parasite or virus in culture; set-up: MIC S9 / MIC S7 / MIC S11 / MIC S8 / MIC S10: unit not given beside the values; details: for MIC S9: E. coli ATCC 35218
Method: The MIC of antibacterial compounds against multiple species and strains was determined using the broth microdilution method according to M07-A10 Clinical and Laboratory Standards Institute (CLSI) guidelines (CLSI (2015) Methods for dilution antimicrobial susceptibility tests for bacteria that grow aerobically; Approved Standard, Tenth Edition. CLSI Document M7-A10 (ISBN 1-56238-987-4). Wayne, Pa.: Clinical and Laboratory Standards Institute, 19087, USA.). In short, bacterial strain preparation was performed on D1 and D2. […] 5-10 well-isolated colonies of similar morphology were selected and re-streaked onto fresh agar plates using sterile loops and incubated for 20-24 hr at 35±2° C. Bacterial strains were subcultured two times to ensure fresh inoculums for MIC screening. […] Alternatively, 1-2 colonies were transferred into 500 μL of saline and OD600 was adjusted to ˜0.1 using an OD meter. Bacterial inoculum was diluted by 1:280 for Gram-positive strains and 1:400 for Gram-negative strains into corresponding medium broth (CAMHB, CAMHB+3% lysed horse blood, HTM) (e.g. 35.6 μL of inoculum into 10 mL of CAMHB or 25 μL of inoculum into 10 mL of CAMHB). For compound plate, the compound stock solutions were prepared in 100% DMSO on the day of MIC screening and used immediately. Compound stock concentration=[(highest testing concentration)×100 μL/2 μL] (e.g. if the required highest testing concentration is 64 μg/mL in assay plates, stock concentration=64 μg/mL×100 μL/2 μL=3.2 mg/mL). […] 1 μL of each well was transferred in a new MTP, which served as the test plate by subsequent inoculation. The bacterial suspension prepared above is dispensed at 98 μL/well within 15 minutes after preparation. Negative controls (lack of bacterial cells) and growth control wells (lack of compound) were included in all plates. MTPs were incubated for 18-24 hours at 35±2° C. in ambient air. The MIC was recorded and CFUs were calculated on Day 4. The assay plate was placed on the top of MIC reader, and the magnification mirror was adjusted to read each wells, recording growth status as raw data. Photo images of each assay plates were recorded using Q Count 530 (Spiral Biotech). The MIC value of each compound, expressed as μg/mL, was determined as the lowest concentration required for complete growth inhibition (no visible growth).

A. baumannii (ATCC17978) = assay: 50% growth inhibitory concentration (IC50) determination assay, A. baumannii; assay type: cell-based; details: Acinetobacter baumannii, ATCC17978; Iso-Sensitest broth, growth by OD 600 nm over 16 h; <0.098 = detection limit
Method: (§1) The in vitro antimicrobial activity of the compounds against S. aureus (ATCC29213), K. pneumoniae (ATCC10031), and A. baumannii (ATCC17978), was determined according to the following procedure: The assay used a 10-points Iso-Sensitest broth medium to measure quantitatively the in vitro activity of the compounds against S. aureus ATCC29213, K. pneumoniae ATCC 10031, and A. baumannii ATCC17978. Stock compounds in DMSO were serially two-fold diluted (range from 50 to 0.097 μM final concentration) in 384 wells microtiter plates and inoculated with 49 μL the bacterial suspension in Iso-Sensitest broth medium to have a final cell concentration of ˜5×10^5 CFU/mL in a final volume/well of 50 μL/well. Microtiter plates were incubated at 35±2° C. Bacterial cell growth was determined with the measurement of optical density at λ=600 nm each 20 minutes over a time course of 16 h.

[3] = test system: K. pneumoniae (ATCC10031); assay: 50% growth inhibitory concentration (IC50) determination assay, K. pneumoniae; assay type: cell-based; details: Klebsiella pneumoniae, ATCC10031; Iso-Sensitest broth, growth by OD 600 nm over 16 h; <0.098 = detection limit
Method: as §1

S. aureus (ATCC29213) = assay: 50% growth inhibitory concentration (IC50) determination assay, S. aureus; assay type: cell-based; details: Staphylococcus aureus, ATCC29213; Iso-Sensitest broth, growth by OD 600 nm over 16 h; <0.098 = detection limit
Method: as §1

[4] = Acinetobacter baumannii, ATCC19606, read-out: MIC S1, A. baumannii ATCC 19606
[5] = Acinetobacter baumannii, ATCC51432, read-out: MIC S2, A. baumannii ATCC 51432
[6] = Acinetobacter baumannii, ATCCBAA747, read-out: MIC S3, A. baumannii ATCC BAA-747
[7] = Escherichia coli, ATCC25922, read-out: MIC S11, E. coli ATCC 25922
[8] = Escherichia coli, ATCCBAA2340, read-out: MIC S10, E. coli ATCC BAA-2340
[9] = Klebsiella pneumoniae, ATCC10031, read-out: MIC S4, K. pneumoniae ATCC 10031
[10] = Klebsiella pneumoniae, ATCC700603, read-out: MIC S5, K. pneumoniae ATCC 700603
[11] = Klebsiella pneumoniae, ATCCBAA2146, read-out: MIC S6, K. pneumoniae ATCC BAA-2146
[12] = Pseudomonas aeruginosa, ATCC27853, read-out: MIC S7, P. aeruginosa ATCC 27853
[13] = Pseudomonas aeruginosa, ATCCBAA2113, read-out: MIC S8, P. aeruginosa ATCC BAA-2113

Row | Compound | CC50 at 3 days [1] [nM] | MIC [2, 4] [µg/mL] | MIC [2, 5] [µg/mL] | MIC [2, 6] [µg/mL] | MIC S9 [2] | MIC [2, 7] [µg/mL] | MIC [2, 8] [µg/mL] | MIC [2, 9] [µg/mL] | MIC [2, 10] [µg/mL] | MIC [2, 11] [µg/mL] | MIC [2, 12] [µg/mL] | MIC [2, 13] [µg/mL] | IC50 (A. baumannii (ATCC17978)) [nM] | IC50 [3] [nM] | IC50 (S. aureus (ATCC29213)) [nM]
1 | CNc1cc(F)c(Cl)c2c1[nH]c1ncc(-c3ccc4ccc(C(=O)O)c(=O)n4c3)c(N3CC[C@@]4(C[C@@H]4N)C3)c12 (single isomer, unassigned) [Example 5.01A] | > 100000 | 1.03 (≈ 1.88 µM) | 1.03 (≈ 1.88 µM) | 1.03 (≈ 1.88 µM) | 0.516 | 0.194 (≈ 0.355 µM) | 0.516 (≈ 0.943 µM) | 0.032 (≈ 0.0585 µM) | 2.07 (≈ 3.78 µM) | 4.13 (≈ 7.55 µM) | 2.07 (≈ 3.78 µM) | 2.07 (≈ 3.78 µM) |  |  | 
2 | CNc1cc(F)cc2c1[nH]c1ncc(-c3ccc4ccc(C(=O)O)c(=O)n4c3)c(N3CCOCC3)c12 [Example 1.02, 7-(6-fluoro-8-(methylamino)-4-morpholino-9H-pyrido[2,3-b]indol-3-yl)-4-oxo-4H-quinolizine-3-carboxylic acid] | 24100 |  |  |  |  |  |  |  |  |  |  |  | < 98 | < 98 | 159
3 | CNc1cc(F)c(C#N)c2c1[nH]c1ncc(-c3ccc4ccc(C(=O)O)c(=O)n4c3)c(N3CC4C(N(C)C)CO[C@@H]4C3)c12 (stereo partly drawn) [Example 1.15, 7-[5-cyano-4-[cis-3-(dimethylamino)-2,3,3a,4,6,6a-hexahydrofuro[2,3-c]pyrrol-5-yl]-6-fluoro-8-(methylamino)-9H-pyrido[2,3-b]indol-3-yl]-4-oxo-quinolizine-3-carboxylic acid] | 75400 |  |  |  |  |  |  |  |  |  |  |  | < 98 | < 98 | 103
4 | CNc1cc(F)c(F)c2c1[nH]c1ncc(-c3ccc4ccc(C(=O)O)c(=O)n4c3)c(N3CC[C@@H]4CCN(C)[C@@H]4C3)c12 [Example 3.04B, 7-[4-[(3aS,7aS)-1-methyl-3,3a,4,5,7,7a-hexahydro-2H-pyrrolo[2,3-c]pyridin-6-yl]-5,6-difluoro-8-(methylamino)-9H-pyrido[2,3-b]indol-3-yl]-4-oxo-quinolizine-3-carboxylic acid] | 10800 | 0.436 (≈ 0.781 µM) | 0.436 (≈ 0.781 µM) | 0.436 (≈ 0.781 µM) | 0.436 | 0.164 (≈ 0.294 µM) | 1.75 (≈ 3.13 µM) | 0.027 (≈ 0.0483 µM) | 1.75 (≈ 3.13 µM) | 1.75 (≈ 3.13 µM) | 0.873 (≈ 1.56 µM) | 1.75 (≈ 3.13 µM) | < 98 | < 98 | < 98
5 | CNc1cc(F)c(F)c2c1[nH]c1ncc(-c3ccc4ccc(C(=O)O)c(=O)n4c3)c(N3CC[C@@]4(C[C@H]4N)C3)c12 [Example 4.01B, 7-(4-((1R,3R)-1-amino-5-azaspiro[2.4]heptan-5-yl)-5,6-difluoro-8-(methylamino)-9H-pyrido[2,3-b]indol-3-yl)-4-oxo-4H-quinolizine-3-carboxylic acid] | > 100000 |  |  |  |  |  |  |  |  |  |  |  | < 98 | < 98 | < 98
6 | CNc1cc(F)c(F)c2c1[nH]c1ncc(-c3ccc4ccc(C(=O)O)c(=O)n4c3)c(N3CC[C@]4(C[C@H]4N)C3)c12 [Example 4.01C, 7-(4-((1R,3S)-1-amino-5-azaspiro[2.4]heptan-5-yl)-5,6-difluoro-8-(methylamino)-9H-pyrido[2,3-b]indol-3-yl)-4-oxo-4H-quinolizine-3-carboxylic acid] | > 100000 | 0.592 (≈ 1.12 µM) | 0.592 (≈ 1.12 µM) | 1.19 (≈ 2.24 µM) | 0.592 | 0.222 (≈ 0.418 µM) | 1.19 (≈ 2.24 µM) | 0.074 (≈ 0.139 µM) | 2.37 (≈ 4.47 µM) | 2.37 (≈ 4.47 µM) | 1.19 (≈ 2.24 µM) | 2.37 (≈ 4.47 µM) | < 98 | < 98 | < 98
7 | CNc1cc(F)c(F)c2c1[nH]c1ncc(-c3ccc4ccc(C(=O)O)c(=O)n4c3)c(N3CC[C@]4(C[C@@H]4N)C3)c12 [Example 4.01D, 7-(4-((1S,3S)-1-amino-5-azaspiro[2.4]heptan-5-yl)-5,6-difluoro-8-(methylamino)-9H-pyrido[2,3-b]indol-3-yl)-4-oxo-4H-quinolizine-3-carboxylic acid] | > 100000 | 0.592 (≈ 1.12 µM) | 1.19 (≈ 2.24 µM) | 1.19 (≈ 2.24 µM) | 1.186 | 0.111 (≈ 0.209 µM) | 0.592 (≈ 1.12 µM) | 0.037 (≈ 0.0697 µM) | 4.74 (≈ 8.94 µM) | 4.74 (≈ 8.94 µM) | 1.19 (≈ 2.24 µM) | 2.37 (≈ 4.47 µM) | < 98 | < 98 | < 98
8 | CNc1cc(F)c(Cl)c2c1[nH]c1ncc(-c3ccc4ccc(C(=O)O)c(=O)n4c3)c(N3CC[C@]4(C[C@H]4N)C3)c12 [Example 5.01B, 7-(4-((1R,3S)-1-amino-5-azaspiro[2.4]heptan-5-yl)-5-chloro-6-fluoro-8-(methylamino)-9H-pyrido[2,3-b]indol-3-yl)-4-oxo-4H-quinolizine-3-carboxylic acid] | > 100000 | 0.516 (≈ 0.943 µM) | 1.03 (≈ 1.88 µM) | 1.03 (≈ 1.88 µM) | 0.516 | 0.097 (≈ 0.177 µM) | 0.516 (≈ 0.943 µM) | 0.032 (≈ 0.0585 µM) | 4.13 (≈ 7.55 µM) | 4.13 (≈ 7.55 µM) | 2.07 (≈ 3.78 µM) | 2.07 (≈ 3.78 µM) |  |  | 
9 | CNc1cc(F)c(Cl)c2c1[nH]c1ncc(-c3ccc4ccc(C(=O)O)c(=O)n4c3)c(N3CC[C@@]4(C[C@H]4N)C3)c12 [Example 5.01C, 7-(4-((1R,3R)-1-amino-5-azaspiro[2.4]heptan-5-yl)-5-chloro-6-fluoro-8-(methylamino)-9H-pyrido[2,3-b]indol-3-yl)-4-oxo-4H-quinolizine-3-carboxylic acid] | > 100000 | 0.516 (≈ 0.943 µM) | 0.258 (≈ 0.472 µM) | 0.516 (≈ 0.943 µM) | 0.258 | 0.194 (≈ 0.355 µM) | 0.258 (≈ 0.472 µM) | 0.032 (≈ 0.0585 µM) | 2.07 (≈ 3.78 µM) | 2.07 (≈ 3.78 µM) | 1.03 (≈ 1.88 µM) | 2.07 (≈ 3.78 µM) | < 98 | < 98 | < 98
